In the supplement of paper PMC11451515:

Test system: P12-Ichikawa
Assay: cell viability relative to DMSO control; higher = less cytotoxic
Settings: 48 h
How it was run: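 NOMO1 or SEM (500 cells/well) or P12-Ichikawa (1000 cells/well) leukemia cells were adapted for at least four passages in each medium. They were seeded in 1536-well plates (5 μl) and pin-dosed with library compounds in DMSO over an 11-point threefold series, 47 μM to 0.79 nM. CellTiter-Glo One luminescence was read after 48 h at 37°C. Viability is the per-plate percentage relative to DMSO wells, with cell-free wells as background.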

[1] = HPLM + 10% dialyzed FBS, 0.000781 µM
[2] = HPLM + 10% dialyzed FBS, 0.00234 µM
[3] = HPLM + 10% dialyzed FBS, 0.00702 µM
[4] = HPLM + 10% dialyzed FBS, 0.0211 µM
[5] = HPLM + 10% dialyzed FBS, 0.0632 µM
[6] = HPLM + 10% dialyzed FBS, 0.19 µM
[7] = HPLM + 10% dialyzed FBS, 0.569 µM
[8] = HPLM + 10% dialyzed FBS, 1.71 µM
[9] = HPLM + 10% dialyzed FBS, 5.12 µM
[10] = HPLM + 10% dialyzed FBS, 15.4 µM
[11] = HPLM + 10% dialyzed FBS, 46.1 µM
[12] = RPMI 5 mM glucose + 10% FBS, 0.000781 µM
[13] = RPMI 5 mM glucose + 10% FBS, 0.00234 µM
[14] = RPMI 5 mM glucose + 10% FBS, 0.00702 µM
[15] = RPMI 5 mM glucose + 10% FBS, 0.0211 µM
[16] = RPMI 5 mM glucose + 10% FBS, 0.0632 µM
[17] = RPMI 5 mM glucose + 10% FBS, 0.19 µM
[18] = RPMI 5 mM glucose + 10% FBS, 0.569 µM
[19] = RPMI 5 mM glucose + 10% FBS, 1.71 µM
[20] = RPMI 5 mM glucose + 10% FBS, 5.12 µM
[21] = RPMI 5 mM glucose + 10% FBS, 15.4 µM
[22] = RPMI 5 mM glucose + 10% FBS, 46.1 µM
[23] = RPMI 5 mM glucose + 10% dialyzed FBS, 0.000781 µM
[24] = RPMI 5 mM glucose + 10% dialyzed FBS, 0.00234 µM
[25] = RPMI 5 mM glucose + 10% dialyzed FBS, 0.00702 µM
[26] = RPMI 5 mM glucose + 10% dialyzed FBS, 0.0211 µM
[27] = RPMI 5 mM glucose + 10% dialyzed FBS, 0.0632 µM
[28] = RPMI 5 mM glucose + 10% dialyzed FBS, 0.19 µM
[29] = RPMI 5 mM glucose + 10% dialyzed FBS, 0.569 µM
[30] = RPMI 5 mM glucose + 10% dialyzed FBS, 1.71 µM
[31] = RPMI 5 mM glucose + 10% dialyzed FBS, 5.12 µM
[32] = RPMI 5 mM glucose + 10% dialyzed FBS, 15.4 µM
[33] = RPMI 5 mM glucose + 10% dialyzed FBS, 46.1 µM

SMILES | cell viability [1] [%] | cell viability [2] [%] | cell viability [3] [%] | cell viability [4] [%] | cell viability [5] [%] | cell viability [6] [%] | cell viability [7] [%] | cell viability [8] [%] | cell viability [9] [%] | cell viability [10] [%] | cell viability [11] [%] | cell viability [12] [%] | cell viability [13] [%] | cell viability [14] [%] | cell viability [15] [%] | cell viability [16] [%] | cell viability [17] [%] | cell viability [18] [%] | cell viability [19] [%] | cell viability [20] [%] | cell viability [21] [%] | cell viability [22] [%] | cell viability [23] [%] | cell viability [24] [%] | cell viability [25] [%] | cell viability [26] [%] | cell viability [27] [%] | cell viability [28] [%] | cell viability [29] [%] | cell viability [30] [%] | cell viability [31] [%] | cell viability [32] [%] | cell viability [33] [%]
CC(C)OC1=CC=C2C(=C1)O\C=C(/C2=O)C3=CC=CC=C3 | 118 | 126 | 122 | 128 | 120 | 119 | 124 | 117 | 113 | 118 | 112 | 123 | 118 | 127 | 128 | 131 | 122 | 121 | 123 | 115 | 110 | 113 | 127 | 121 | 122 | 116 | 132 | 110 | 122 | 115 | 119 | 92.4 | 110
OCc1ccc(-c2ccc(-c3ccc(CO)s3)o2)s1 | 116 | 116 | 106 | 116 | 101 | 105 | 102 | 106 | 98 | 97.8 | 87.3 | – | – | – | – | – | – | – | – | – | – | – | 118 | 123 | 130 | 125 | 118 | 109 | 104 | 95.4 | 96.3 | 91 | 78.6
CC(C)[C@H](N)C(=O)OCCOC[N]1C=NC2=C1\N=C(N)/NC2=O | 124 | 124 | 121 | 125 | 128 | 126 | 131 | 131 | 123 | 123 | 119 | 123 | 135 | 122 | 121 | 128 | 150 | 146 | 152 | 140 | 132 | 146 | – | – | – | – | – | – | – | – | – | – | –
N[S+](=O)([O-])OC[C@@H]1C[C@@H](n2ccc3c(N[C@H]4CCc5ccccc54)ncnc32)C[C@@H]1O | 95.1 | 102 | 110 | 102 | 113 | 118 | 116 | 82.2 | 38.3 | 16.1 | 12.7 | 107 | 105 | 107 | 126 | 108 | 120 | 116 | 61.5 | 31.2 | 9.99 | 8.16 | 97.4 | 111 | 106 | 110 | 98.2 | 106 | 100 | 54.1 | 34.4 | 12.3 | 11.2
CC/1=C(/N2[C@H](SC1)[C@H](NC(=O)C(N)C3=CC=CC=C3)C2=O)C(O)=O (some centres not stated) | 119 | 122 | 129 | 133 | 136 | 135 | 133 | 136 | 144 | 136 | 138 | – | – | – | – | – | – | – | – | – | – | – | – | – | – | – | – | – | – | – | – | – | –
CC(C)(C)[C@H](NC(=O)c1ccc(N)c(Cl)c1)C(=O)N1CCC[C@H]1C(=O)N[C@H](C#N)CC(=O)O | 121 | 126 | 123 | 127 | 131 | 127 | 130 | 126 | 32.8 | 14.4 | 10.8 | 116 | 124 | 130 | 133 | 126 | 139 | 133 | 133 | 49.9 | 22.6 | 15.5 | 108 | 123 | 121 | 133 | 131 | 130 | 133 | 127 | 102 | 52.1 | 16.7
CCOC(=O)/C=C/[C@H](C[C@@H]1CCNC1=O)NC(=O)[C@@H](CC(=O)[C@@H](NC(=O)c1cc(C)on1)C(C)C)Cc1ccc(F)cc1 | 122 | 115 | 121 | 87.7 | 130 | 127 | 126 | 117 | 121 | 122 | 117 | 114 | 122 | 130 | 76.8 | 135 | 135 | 134 | 136 | 121 | 120 | 119 | 112 | 106 | 118 | 80.2 | 111 | 119 | 115 | 128 | 119 | 124 | 118
NC(=O)OCC(COC(N)=O)c1ccccc1 | – | – | – | – | – | – | – | – | – | – | – | 118 | 123 | 120 | 118 | 126 | 113 | 136 | 115 | 116 | 113 | 108 | – | – | – | – | – | – | – | – | – | – | –
COc1cc(O)c2c(c1)C(=O)c1cc(C)cc(O)c1C2=O | 124 | 120 | 122 | 118 | 122 | 119 | 112 | 114 | 110 | 98.9 | 41.7 | 121 | 118 | 121 | 119 | 121 | 116 | 113 | 113 | 120 | 97.6 | 45.2 | – | – | – | – | – | – | – | – | – | – | –
CC(C)(O)c1cc2nc(-c3cnc(N)nc3)nc(N3CCOCC3)c2s1 | 120 | 121 | 122 | 125 | 118 | 111 | 108 | 86.2 | 74.1 | 72.6 | 70 | 117 | 127 | 121 | 112 | 114 | 103 | 81.8 | 66.5 | 61 | 49.4 | 48.8 | – | – | – | – | – | – | – | – | – | – | –
